# Data published in US9938245B2 (THE TRUSTEES OF COLUMBIA UNIVERSITY IN THE CITY OF NEW YORK, priority 2014, dated 2018).
# Key:
# [1] = mouse
# system xc− = biological target: T1, system xc− (Homo sapiens, UniProt Q9UPY5); test: Glutamate release assay (system xc− activity); conditions: read-out: IC50 glutamate release; CCF-STTG1 human astrocytoma cells, 2 hour incubation
# T1 sequence (Q9UPY5 1-501): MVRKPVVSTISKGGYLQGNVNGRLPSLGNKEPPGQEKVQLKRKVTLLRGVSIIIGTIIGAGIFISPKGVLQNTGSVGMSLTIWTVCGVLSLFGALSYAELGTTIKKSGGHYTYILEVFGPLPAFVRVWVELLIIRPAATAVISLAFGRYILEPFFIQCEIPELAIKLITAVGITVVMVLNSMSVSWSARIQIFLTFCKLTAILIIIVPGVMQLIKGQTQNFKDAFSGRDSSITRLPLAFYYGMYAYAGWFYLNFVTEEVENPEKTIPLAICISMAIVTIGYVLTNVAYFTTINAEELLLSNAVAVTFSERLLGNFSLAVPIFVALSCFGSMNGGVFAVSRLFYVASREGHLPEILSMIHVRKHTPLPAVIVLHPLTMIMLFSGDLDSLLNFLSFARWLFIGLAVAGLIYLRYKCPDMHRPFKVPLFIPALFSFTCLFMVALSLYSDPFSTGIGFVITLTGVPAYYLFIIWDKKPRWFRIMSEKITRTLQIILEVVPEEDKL
# T1 sequence (P08195 1-529 partner): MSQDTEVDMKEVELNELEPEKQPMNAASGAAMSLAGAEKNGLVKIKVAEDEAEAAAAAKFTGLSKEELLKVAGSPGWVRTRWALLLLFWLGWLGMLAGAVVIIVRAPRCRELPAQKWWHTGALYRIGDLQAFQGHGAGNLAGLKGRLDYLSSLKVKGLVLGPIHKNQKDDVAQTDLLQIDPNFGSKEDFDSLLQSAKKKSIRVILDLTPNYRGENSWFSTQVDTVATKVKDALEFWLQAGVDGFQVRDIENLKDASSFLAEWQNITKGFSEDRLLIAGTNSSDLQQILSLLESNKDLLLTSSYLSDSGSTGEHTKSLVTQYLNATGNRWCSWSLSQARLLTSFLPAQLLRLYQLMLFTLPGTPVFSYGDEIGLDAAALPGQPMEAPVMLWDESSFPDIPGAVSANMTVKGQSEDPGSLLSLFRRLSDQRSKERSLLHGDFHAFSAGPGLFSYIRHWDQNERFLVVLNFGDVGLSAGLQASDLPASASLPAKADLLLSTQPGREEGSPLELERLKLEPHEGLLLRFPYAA
# [2] = system: BJeH, BJeHLT, BJeLR, and DRD; test: RSL testing in 4 BJ-derived cell lines; format: cell-based, human
# BJeLR = test: Concentration-dependent growth inhibition (alamar blue), isogenic BJ cell lines; format: cell-based, human
# HT-1080 tumor = HT-1080 tumor formation, mouse xenograft model; format: in vivo, athymic nude mice; conditions: PE 40 mg/kg SC then 30 mg/kg tail vein; erastin SC
# Procedure: The images show representative tumors in live mice from each treatment group.
# Athymic nude mice (8 weeks, Charles River) were injected with 4 million HT-1080 cells subcutaneously (SC). […] Two days later, the SC injection was repeated. Three days later, […] of vehicle or 30 mg/kg PE were administered to the mice through a tail vein. The tail vein injection was repeated three times more, once every other day, before the final tumor size was measured in both groups.
# Instead, erastin was injected through the SC route using the same schedule as PE until the tumor size was measured.
# HT1080 = test: Concentration-dependent growth inhibition (alamar blue), HT1080; format: cell-based, human; conditions: 2 days
# Procedure: Assay plates were prepared by seeding either BJ-derived cell lines or HT-1080 cells at 1,500 cells per well concentration in 36 μL growth medium. Cells in the assay plates were treated with compounds by transferring 4 μL volume from the compound plate. The final concentration of compound was typically 30 μM to 0.9 nM in this 16-point, 2-fold dilution series. Assay plates were returned to the culture incubator and maintained for 2 days before adding alamar blue. […] Plates were incubated further for 16 hours to allow reduction of alamar blue, which results in the generation of red fluorescence. The fluorescence intensity was determined using a Victor 3 plate reader (Perkin Elmer) with a 535 nm excitation filter and a 590 nm emission filter.
# Percent growth inhibition (% GI) was calculated from the following formula using the alamar blue fluorescence intensity values. % GI=100*(1−(X−N)/(P−N)) X, cells treated with lethal compound; N, no cells—growth media only; P, no lethal compound—cells only.
# The concentration-dependent curves were generated using Prism software. Percent growth inhibition, measured using alamar blue is shown. Error bars indicate one standard deviation of triplicate data.
# The results are shown in FIG. 17 and in Table 7 below.
# HT-1080 cells = test: Modulatory profiling with lethal molecules and cell death modulators; format: cell-based, human
smiles,measurement,setting,value
"CC(C)Oc1ccc(CN2CCNCC2)cc1-n1c(CN2CCN(C(=O)COc3ccc(Cl)cc3)CC2)nc2ccccc2c1=O [PE, piperazine erastin]",Half-life in liver microsomes,[1],55 min
same,IC50,system xc−,800 nM
same,RSL phenotype (selective lethality in oncogenic-RAS cells),[2],retained the RSL phenotype
same,Selectivity (IC50BJeH/IC50BJeLR),BJeLR,3
same,IC50,"BJeLR; 2 days, alamar blue",300 nM
same,preventing HT-1080 tumor formation,HT-1080 tumor,improved efficacy over erastinin (ERA)
same,IC50,HT1080,1200 nM
same,form of cell death (modulatory profile),HT-1080 cells,induced a similar form of cell death as erastin
